PubChem BioAssay AID1259408 (Genetic Toxicology Data Bank (GENE-TOX), 2018)
The source made the active and inactive calls. How the calls were made is not given here.

Test system: GENE-TOX genotoxicity assays, various organisms and cells
Assay: GENE-TOX mutagenicity studies
Conditions: for call: Assay Type: In vivo carcinogenicity studies
Excerpt: GENE-TOX provides genetic toxicology (mutagenicity) test data from expert peer review of open scientific literature for more than 3,000 chemicals from the United States Environmental Protection Agency (EPA). GENE-TOX was established to select assay systems for evaluation, review data in the scientific literature, and recommend proper testing protocols and evaluation procedures for these systems.
GENE-TOX covers the years 1991 - 1998. It is no longer updated.
This is an archive assay for GENE-TOX mutagenicity studies.

[1] = Species/Cell Type: Mammalian polychromatic erythrocytes, Assay Type: Micronucleus test, chromosome aberrations, Assay Code: MNT+, Evaluation Type: Evaluation A (Pre-1980)
[2] = Species/Cell Type: Nonhuman, Assay Code: CCG+, Evaluation Type: Evaluation A (Pre-1980)
[3] = Species/Cell Type: Saccharomyces cerevisiae, Assay Type: Mitotic recombination or gene conversion, Assay Code: YEH+, Evaluation Type: Evaluation A (Pre-1980)
[4] = Species/Cell Type: Salmonella typhimurium (one or more of the five standard strains: TA98, TA100, TA1535, TA1537, and TA1538), Assay Type: Histidine reverse gene mutation, Ames assay, Assay Code: SALT, Evaluation Type: Evaluation A (Pre-1980)
[5] = Species/Cell Type: Nonhuman, Assay Type: Sister-chromatid exchange (SCE) in vitro, Assay Code: SC2+D, Dose Response: With dose response, Evaluation Type: Evaluation B (Post-1980)
[6] = Species/Cell Type: Salmonella typhimurium (one or more of the five standard strains: TA98, TA100, TA1535, TA1537, and TA1538), Assay Type: Histidine reverse gene mutation, Ames assay, Assay Code: SAL+, Evaluation Type: Evaluation A (Pre-1980)

CN(C)N=O
mutagenic call (Species/Cell Type: Arabidopsis species, Assay Type: Gene mutation, Assay Code: ARM+D, Dose Response: With dose response, Evaluation Type: Evaluation A (Pre-1980)): active; positive | mutagenic call (Species/Cell Type: Chinese hamster lung (V79) cells, Assay Type: Forward gene mutation at the HPRT or ouabain locus, Assay Code: V79+, Evaluation Type: Evaluation A (Pre-1980)): active; positive | mutagenic call (Species/Cell Type: Chinese hamster ovary (CHO) cells, Assay Type: Forward gene mutation at the HPRT locus, Assay Code: CHO+*, Activation: With metabolic activation, Evaluation Type: Evaluation B (Post-1980)): active; positive | mutagenic call (Species/Cell Type: Chinese hamster ovary (CHO) cells, Assay Type: Forward gene mutation at the HPRT locus, Assay Code: CHO+D, Dose Response: With dose response, Evaluation Type: Evaluation A (Pre-1980)): active; positive | mutagenic call (Species/Cell Type: Drosophila melanogaster, Assay Type: Sex-linked recessive lethal gene mutation, Assay Code: SRL+, Evaluation Type: Evaluation A (Pre-1980)): active; positive | mutagenic call (Species/Cell Type: Drosophila melanogaster, Sex: Male, Assay Type: Heritable translocation test, chromosome aberrations, Assay Code: DHT+, Evaluation Type: Evaluation A (Pre-1980)): active; positive | mutagenic call (Species/Cell Type: Escherichia coli WP2, Assay Type: Tryptophan reverse gene mutation, Assay Code: WP2+*, Activation: With metabolic activation, Evaluation Type: Evaluation A (Pre-1980)): active; positive | mutagenic call (Species/Cell Type: Escherichia coli WP2 UVRA, Assay Type: Tryptophan reverse gene mutation, Assay Code: WPU+*, Activation: With metabolic activation, Evaluation Type: Evaluation A (Pre-1980)): active; positive | mutagenic call (Species/Cell Type: Escherichia coli polA (W3110 vs P3478), Assay Type: Rec-assay, DNA effects (bacterial DNA repair), Assay Code: RE2+, Evaluation Type: Evaluation A (Pre-1980)): active; positive | mutagenic call (Species/Cell Type: Escherichia coli polA (W3119 vs P3478), Assay Type: Rec-assay, DNA effects (bacterial DNA repair), Assay Code: RE1T, Evaluation Type: Evaluation A (Pre-1980)): no conclusion | mutagenic call (Species/Cell Type: Fischer rat embryo (RLV/1706) cells, Assay Type: Cell transformation, viral enhanced, Assay Code: CTRT, Evaluation Type: Evaluation A (Pre-1980)): no conclusion | mutagenic call (Species/Cell Type: Human diploid fibroblasts, Assay Type: Unscheduled DNA synthesis (UDS) in vitro, DNA effects, Assay Code: UDH+D, Dose Response: With dose response, Evaluation Type: Evaluation A (Pre-1980)): active; positive | mutagenic call (Species/Cell Type: Human lymphocytes, Assay Type: Sister-chromatid exchange (SCE) in vitro, Assay Code: SCL+D*, Activation: With metabolic activation, Dose Response: With dose response, Evaluation Type: Evaluation B (Post-1980)): active; positive | mutagenic call (Species/Cell Type: Human, Assay Type: Sister-chromatid exchange (SCE) in vitro, Assay Code: SC1+D*, Activation: With metabolic activation, Dose Response: With dose response, Evaluation Type: Evaluation B (Post-1980)): active; positive | mutagenic call (Species/Cell Type: Mammalian germ cells, Sex: Male, Assay Type: Chromosome aberrations in vivo, Assay Code: CY9-, Evaluation Type: Evaluation A (Pre-1980)): inactive; negative | mutagenic call [1]: active; positive | mutagenic call (Species/Cell Type: Mouse germ cells, Sex: Male, Assay Type: Unscheduled DNA synthesis (UDS) in vivo, DNA effects, Assay Code: UDT-, Evaluation Type: Evaluation A (Pre-1980)): inactive; negative | mutagenic call (Species/Cell Type: Mouse lymphoma (L5178Y) cells, Assay Type: Forward gene mutation at the thymidine kinase (TK) locus, chromosome aberrations, Assay Code: L51+*, Activation: With metabolic activation, Evaluation Type: Evaluation A (Pre-1980)): active; positive | mutagenic call (Species/Cell Type: Mouse, Sex: Female, Assay Type: Spot test, gene mutation, Assay Code: MSTT, Evaluation Type: Evaluation A (Pre-1980)): no conclusion | mutagenic call (Species/Cell Type: Mouse, Sex: Male, Assay Type: Sperm morphology, Assay Code: SPI-, Evaluation Type: Evaluation A (Pre-1980)): inactive; negative | mutagenic call (Species/Cell Type: Neurospora crassa, Assay Type: Forward gene mutation, Assay Code: NEF+*, Activation: With metabolic activation, Evaluation Type: Evaluation A (Pre-1980)): active; positive | mutagenic call (Species/Cell Type: Neurospora crassa, Assay Type: Reverse gene mutation, Assay Code: NER+, Evaluation Type: Evaluation A (Pre-1980)): active; positive | mutagenic call (Species/Cell Type: Nonhuman, Assay Type: Chromosome aberrations in vitro, Assay Code: CY&+D*, Activation: With metabolic activation, Dose Response: With dose response, Evaluation Type: Evaluation A (Pre-1980)): active; positive | call [2]: active; positive | mutagenic call (Species/Cell Type: Nonhuman, Assay Type: Sister-chromatid exchange (SCE) in vitro, Assay Code: SC2+D, Dose Response: With dose response, Evaluation Type: Evaluation A (Pre-1980)): active; positive | mutagenic call (Species/Cell Type: Nonhuman, Assay Type: Sister-chromatid exchange (SCE) in vivo, Assay Code: SC3+D, Dose Response: With dose response, Evaluation Type: Evaluation A (Pre-1980)): active; positive | mutagenic call (Species/Cell Type: Rat primary hepatocytes, Assay Type: Unscheduled DNA synthesis (UDS) in vitro, DNA effects, Assay Code: UDP+, Evaluation Type: Evaluation A (Pre-1980)): active; positive | mutagenic call (Species/Cell Type: Rodents, Sex: Male, Assay Type: Dominant lethal test, Assay Code: DLTT, Evaluation Type: Evaluation A (Pre-1980)): no conclusion | mutagenic call (Species/Cell Type: Saccharomyces cerevisiae, Assay Type: Forward gene mutation, Assay Code: YEF+*, Activation: With metabolic activation, Evaluation Type: Evaluation A (Pre-1980)): active; positive | mutagenic call (Species/Cell Type: Saccharomyces cerevisiae, Assay Type: Mitotic recombination or gene conversion, Assay Code: YEC+*, Activation: With metabolic activation, Evaluation Type: Evaluation A (Pre-1980)): active; positive | mutagenic call [3]: active; positive | mutagenic call (Species/Cell Type: Salmonella typhimurium (one or more of the five standard strains: TA98, TA100, TA1535, TA1537, and TA1538), Assay Type: Histidine reverse gene mutation, Ames assay, Assay Code: SAL+*, Activation: With metabolic activation, Evaluation Type: Evaluation A (Pre-1980)): active; positive | mutagenic call (Species/Cell Type: Salmonella typhimurium, Escherichia coli, Neurospora crassa, Saccharomyces cerevisiae, Chinese hamster ovary (CHO) and l, Assay Type: Forward and reverse gene mutation, chromosome aberrations, mitotic recombination and gene conversion, DNA effects, host-, Assay Code: HM4+, Evaluation Type: Evaluation A (Pre-1980)): active; positive | mutagenic call (Species/Cell Type: Salmonella typhimurium, Assay Type: Forward and reverse gene mutation, body fluid assay, Assay Code: BFU+, Evaluation Type: Evaluation A (Pre-1980)): active; positive | mutagenic call (Species/Cell Type: Schizosaccharomyces pombe, Assay Type: Forward gene mutation, Assay Code: YEY+*, Activation: With metabolic activation, Evaluation Type: Evaluation A (Pre-1980)): active; positive | mutagenic call (Species/Cell Type: Syrian hamster embryo (SHE) cells, Assay Type: Cell transformation, clonal assay, Assay Code: CTCT, Evaluation Type: Evaluation A (Pre-1980)): no conclusion

Nc1ccc(N=Nc2ccccc2)c(N)n1
call [2]: active; positive

ONc1ccccc1
mutagenic call (Species/Cell Type: Human, Assay Type: Sister-chromatid exchange (SCE) in vitro, Assay Code: SC1+, Evaluation Type: Evaluation B (Post-1980)): active; positive

CN(C)N=Nc1cccc(O)c1
mutagenic call (Species/Cell Type: Drosophila melanogaster, Assay Type: Sex-linked recessive lethal gene mutation, Assay Code: SRLT, Evaluation Type: Evaluation A (Pre-1980)): no conclusion | mutagenic call (Species/Cell Type: Saccharomyces cerevisiae, Assay Type: Mitotic recombination or gene conversion, Assay Code: YEC+, Evaluation Type: Evaluation A (Pre-1980)): active; positive

O=S1(=O)OC2(c3ccc(O)cc3Oc3cc(O)ccc32)c2ccccc21
mutagenic call [4]: no conclusion

NNCCO
mutagenic call (Species/Cell Type: Bacillus subtilis (H17 vs M45), Assay Type: Rec-assay, spot test, DNA effects (bacterial DNA repair), Assay Code: REW+, Evaluation Type: Evaluation A (Pre-1980)): active; positive | mutagenic call (Species/Cell Type: Escherichia coli WP2, Assay Type: Tryptophan reverse gene mutation, Assay Code: WP2+, Evaluation Type: Evaluation A (Pre-1980)): active; positive | mutagenic call (Species/Cell Type: Escherichia coli WP2 UVRA, Assay Type: Tryptophan reverse gene mutation, Assay Code: WPU+, Evaluation Type: Evaluation A (Pre-1980)): active; positive | mutagenic call [5]: active; positive | mutagenic call [6]: active; positive

O=C1C=Cc2ccc3c4c(ccc1c24)-c1ccccc1C3=O
mutagenic call (Species/Cell Type: Chinese hamster lung (V79) cells, Assay Type: Forward gene mutation at the HPRT or ouabain locus, Assay Code: V79-, Evaluation Type: Evaluation A (Pre-1980)): inactive; negative | call (Species/Cell Type: Nonhuman, Assay Code: CCGT, Evaluation Type: Evaluation A (Pre-1980)): no conclusion | mutagenic call [4]: no conclusion

CN(C)C(=O)Cl
mutagenic call (Species/Cell Type: Escherichia coli polA (W3119 vs P3478), Assay Type: Rec-assay, DNA effects (bacterial DNA repair), Assay Code: RE1+, Evaluation Type: Evaluation A (Pre-1980)): active; positive | mutagenic call (Species/Cell Type: Human diploid fibroblasts, Assay Type: Unscheduled DNA synthesis (UDS) in vitro, DNA effects, Assay Code: UDH-, Evaluation Type: Evaluation A (Pre-1980)): inactive; negative | mutagenic call [1]: active; positive | call [2]: active; positive | mutagenic call [5]: active; positive | mutagenic call [3]: active; positive | mutagenic call [6]: active; positive | mutagenic call (Species/Cell Type: Salmonella typhimurium, Assay Type: Forward and reverse gene mutation, host-mediated assay, Assay Code: HMA+, Evaluation Type: Evaluation A (Pre-1980)): active; positive | mutagenic call (Species/Cell Type: Syrian hamster embryo (SHE) cells, Assay Type: Cell transformation, clonal assay, Assay Code: CTC+, Evaluation Type: Evaluation A (Pre-1980)): active; positive

OCCc1ccccc1
mutagenic call (Species/Cell Type: Human lymphocytes, Assay Type: Sister-chromatid exchange (SCE) in vitro, Assay Code: SCLT, Evaluation Type: Evaluation B (Post-1980)): no conclusion | mutagenic call (Species/Cell Type: Human, Assay Type: Sister-chromatid exchange (SCE) in vitro, Assay Code: SC1T, Evaluation Type: Evaluation B (Post-1980)): no conclusion
